How the values were obtained:
Experiment in all cases: radiometric filter-binding kinase assay
EPHA2 (human) = EPHA2 (human) (UniProt P29317)
AURKA (human) = AURKA (human) (UniProt O14965)
CDK2 CCNA2 (human) = CDK2 CCNA2 (human) (UniProt P20248+P24941)
MAPKAPK3 (human) = MAPKAPK3 (human) (UniProt Q16644)
MELK (human) = MELK (human) (UniProt Q14680)
EEF2K (human) = EEF2K (human) (UniProt O00418)
PIM3 (human) = PIM3 (human) (UniProt Q86V86)
RPS6KA3 KD1 KD2 (human) = RPS6KA3 KD1 KD2 (human) (UniProt P51812)
MST4 (human) = MST4 (human) (UniProt Q9P289)
MST4 (human), sequence (Q9P289 whole entry, looked up): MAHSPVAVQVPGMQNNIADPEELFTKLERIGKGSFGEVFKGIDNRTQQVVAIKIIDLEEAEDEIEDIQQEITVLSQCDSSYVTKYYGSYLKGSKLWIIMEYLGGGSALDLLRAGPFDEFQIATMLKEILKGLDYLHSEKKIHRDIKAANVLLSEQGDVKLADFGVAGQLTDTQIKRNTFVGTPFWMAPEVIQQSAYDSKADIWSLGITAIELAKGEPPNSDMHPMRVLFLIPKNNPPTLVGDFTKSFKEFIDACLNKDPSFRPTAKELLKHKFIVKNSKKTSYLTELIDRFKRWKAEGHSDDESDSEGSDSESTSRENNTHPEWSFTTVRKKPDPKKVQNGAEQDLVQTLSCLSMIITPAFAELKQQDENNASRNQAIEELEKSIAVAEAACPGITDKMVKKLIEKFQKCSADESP

CHEK1 (human) = CHEK1 (human) (UniProt O14757)
BTK (human) = BTK (human) (UniProt Q06187)
MAP2K6 (human) = MAP2K6 (human) (UniProt P52564)
AURKB (human) = AURKB (human) (UniProt Q96GD4)
AURKB (human), sequence (Q96GD4 whole entry, looked up): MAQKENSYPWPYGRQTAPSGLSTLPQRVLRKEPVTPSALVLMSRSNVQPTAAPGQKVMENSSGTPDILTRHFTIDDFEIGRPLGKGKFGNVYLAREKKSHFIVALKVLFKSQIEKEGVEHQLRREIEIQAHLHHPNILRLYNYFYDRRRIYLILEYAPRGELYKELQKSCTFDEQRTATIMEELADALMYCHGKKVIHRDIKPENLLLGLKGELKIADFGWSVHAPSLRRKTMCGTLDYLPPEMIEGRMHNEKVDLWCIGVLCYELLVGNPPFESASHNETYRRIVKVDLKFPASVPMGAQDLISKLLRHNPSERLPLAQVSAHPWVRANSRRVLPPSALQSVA

MINK1 (human) = MINK1 (human) (UniProt Q8N4C8)
GCK (human) = GCK (human) (UniProt Q12851)
ERBB4 (human) = ERBB4 (human) (UniProt Q15303)
[1] = tested on: SGK1 (human), O00141 [S422D]
[2] = tested on: PAK2 (human), Q13177 [T402E]
FGFR1 (human) = FGFR1 (human) (UniProt P11362)
MAPK15 (human) = MAPK15 (human) (UniProt Q8TD08)
MAPK15 (human), sequence (Q8TD08 whole entry, looked up): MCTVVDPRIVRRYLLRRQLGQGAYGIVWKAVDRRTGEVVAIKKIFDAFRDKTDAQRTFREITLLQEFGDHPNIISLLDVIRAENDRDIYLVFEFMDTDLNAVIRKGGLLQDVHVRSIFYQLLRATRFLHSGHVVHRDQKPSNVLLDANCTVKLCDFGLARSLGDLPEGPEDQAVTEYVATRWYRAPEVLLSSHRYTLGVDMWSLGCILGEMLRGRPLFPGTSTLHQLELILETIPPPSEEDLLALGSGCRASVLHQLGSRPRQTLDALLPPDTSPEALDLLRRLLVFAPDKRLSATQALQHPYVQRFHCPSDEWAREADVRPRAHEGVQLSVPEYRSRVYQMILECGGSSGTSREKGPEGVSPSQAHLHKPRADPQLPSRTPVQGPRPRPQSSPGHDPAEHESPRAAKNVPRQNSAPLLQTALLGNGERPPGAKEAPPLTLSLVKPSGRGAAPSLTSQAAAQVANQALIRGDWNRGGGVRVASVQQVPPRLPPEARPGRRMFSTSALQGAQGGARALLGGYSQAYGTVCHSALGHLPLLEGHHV

PIM2 (human) = PIM2 (human) (UniProt Q9P1W9); conditions: compound 1.0 µM
FLT1 (human) = FLT1 (human) (UniProt P17948)
PRKCA (human) = PRKCA (human) (UniProt P17252)
PHKG1 (human) = PHKG1 (human) (UniProt Q16816)
TAOK1 (human) = TAOK1 (human) (UniProt Q7L7X3)
DYRK2 (human) = DYRK2 (human) (UniProt Q92630)
BRSK1 (human) = BRSK1 (human) (UniProt Q8TDC3)
RIPK2 (human) = RIPK2 (human) (UniProt O43353)
MAP2K2 (human) = MAP2K2 (human) (UniProt P36507)
MAP2K2 (human), sequence (P36507 whole entry, looked up): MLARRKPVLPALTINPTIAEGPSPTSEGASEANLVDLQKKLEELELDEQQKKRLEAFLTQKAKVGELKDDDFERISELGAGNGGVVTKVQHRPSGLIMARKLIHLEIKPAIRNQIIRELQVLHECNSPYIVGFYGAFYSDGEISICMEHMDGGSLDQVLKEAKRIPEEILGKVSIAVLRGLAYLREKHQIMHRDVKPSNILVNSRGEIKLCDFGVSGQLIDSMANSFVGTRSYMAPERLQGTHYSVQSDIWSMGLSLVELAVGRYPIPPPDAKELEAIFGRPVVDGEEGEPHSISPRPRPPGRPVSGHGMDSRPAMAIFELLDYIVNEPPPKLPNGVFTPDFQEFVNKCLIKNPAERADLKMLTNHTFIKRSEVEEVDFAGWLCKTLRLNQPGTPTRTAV

INSRR (human) = INSRR (human) (UniProt P14616)
INSRR (human), sequence (P14616 whole entry, looked up): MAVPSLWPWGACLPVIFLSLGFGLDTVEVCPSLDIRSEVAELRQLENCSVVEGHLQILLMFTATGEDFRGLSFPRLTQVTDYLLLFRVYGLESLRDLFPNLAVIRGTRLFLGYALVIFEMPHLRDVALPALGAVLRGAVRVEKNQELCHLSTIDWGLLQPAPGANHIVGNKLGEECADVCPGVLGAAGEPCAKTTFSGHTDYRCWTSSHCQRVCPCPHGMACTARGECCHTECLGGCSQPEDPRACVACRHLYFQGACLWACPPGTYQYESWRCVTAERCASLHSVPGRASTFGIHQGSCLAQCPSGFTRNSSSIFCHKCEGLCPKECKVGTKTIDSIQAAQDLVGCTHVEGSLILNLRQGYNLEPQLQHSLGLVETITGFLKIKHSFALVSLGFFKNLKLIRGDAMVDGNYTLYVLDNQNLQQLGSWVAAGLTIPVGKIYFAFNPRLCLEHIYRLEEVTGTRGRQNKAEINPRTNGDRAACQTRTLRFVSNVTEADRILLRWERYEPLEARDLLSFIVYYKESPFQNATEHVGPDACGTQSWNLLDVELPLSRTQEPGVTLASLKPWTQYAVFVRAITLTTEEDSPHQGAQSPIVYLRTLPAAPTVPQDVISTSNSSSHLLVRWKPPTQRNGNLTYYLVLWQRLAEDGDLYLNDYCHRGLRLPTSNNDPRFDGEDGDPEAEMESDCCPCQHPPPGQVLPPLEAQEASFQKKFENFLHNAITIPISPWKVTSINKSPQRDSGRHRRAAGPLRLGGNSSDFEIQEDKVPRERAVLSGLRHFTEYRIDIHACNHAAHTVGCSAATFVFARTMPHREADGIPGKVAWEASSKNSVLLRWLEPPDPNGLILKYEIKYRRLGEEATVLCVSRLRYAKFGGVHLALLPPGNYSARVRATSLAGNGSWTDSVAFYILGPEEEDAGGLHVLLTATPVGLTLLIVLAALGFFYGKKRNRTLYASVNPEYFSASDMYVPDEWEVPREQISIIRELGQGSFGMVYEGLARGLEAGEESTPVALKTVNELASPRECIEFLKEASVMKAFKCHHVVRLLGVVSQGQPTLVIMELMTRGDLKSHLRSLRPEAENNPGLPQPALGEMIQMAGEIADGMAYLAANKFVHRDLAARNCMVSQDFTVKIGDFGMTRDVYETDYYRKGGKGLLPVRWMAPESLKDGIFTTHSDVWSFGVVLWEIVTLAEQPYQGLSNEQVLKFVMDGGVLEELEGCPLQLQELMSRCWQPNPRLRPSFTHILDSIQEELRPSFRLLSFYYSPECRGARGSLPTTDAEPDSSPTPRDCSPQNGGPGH

MAPK10 (human) = MAPK10 (human) (UniProt P53779)
CSNK2A1 (human) = CSNK2A1 (human) (UniProt P68400)
CSNK2A1 (human), sequence (P68400 whole entry, looked up): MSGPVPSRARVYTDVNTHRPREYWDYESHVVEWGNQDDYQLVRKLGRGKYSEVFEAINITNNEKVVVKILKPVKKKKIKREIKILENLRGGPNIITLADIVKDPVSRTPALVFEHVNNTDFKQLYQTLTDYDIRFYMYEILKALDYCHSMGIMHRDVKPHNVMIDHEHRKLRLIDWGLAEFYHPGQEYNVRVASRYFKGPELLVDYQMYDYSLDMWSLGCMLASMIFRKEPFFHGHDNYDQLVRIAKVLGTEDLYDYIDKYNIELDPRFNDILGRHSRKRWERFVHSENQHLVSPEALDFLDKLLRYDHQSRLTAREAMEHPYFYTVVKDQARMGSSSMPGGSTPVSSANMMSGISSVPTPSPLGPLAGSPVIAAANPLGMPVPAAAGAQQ

PRKACA (human) = PRKACA (human) (UniProt P17612)
MAPKAPK5 (human) = MAPKAPK5 (human) (UniProt Q8IW41)
SRPK1 (human) = SRPK1 (human) (UniProt Q96SB4)
MAPK12 (human) = MAPK12 (human) (UniProt P53778)

MAPKAPK3 (human), sequence (Q16644 whole entry, looked up): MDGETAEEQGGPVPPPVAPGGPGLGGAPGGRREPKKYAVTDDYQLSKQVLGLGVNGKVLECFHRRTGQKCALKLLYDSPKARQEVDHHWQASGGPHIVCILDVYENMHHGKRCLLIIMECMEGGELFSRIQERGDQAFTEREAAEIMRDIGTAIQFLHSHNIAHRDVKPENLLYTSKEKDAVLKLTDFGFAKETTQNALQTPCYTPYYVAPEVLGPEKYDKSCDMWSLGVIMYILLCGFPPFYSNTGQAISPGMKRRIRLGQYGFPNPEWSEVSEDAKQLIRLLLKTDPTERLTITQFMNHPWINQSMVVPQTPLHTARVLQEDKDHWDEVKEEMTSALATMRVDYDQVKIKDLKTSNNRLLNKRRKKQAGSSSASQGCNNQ
AURKA (human), sequence (O14965 whole entry, looked up): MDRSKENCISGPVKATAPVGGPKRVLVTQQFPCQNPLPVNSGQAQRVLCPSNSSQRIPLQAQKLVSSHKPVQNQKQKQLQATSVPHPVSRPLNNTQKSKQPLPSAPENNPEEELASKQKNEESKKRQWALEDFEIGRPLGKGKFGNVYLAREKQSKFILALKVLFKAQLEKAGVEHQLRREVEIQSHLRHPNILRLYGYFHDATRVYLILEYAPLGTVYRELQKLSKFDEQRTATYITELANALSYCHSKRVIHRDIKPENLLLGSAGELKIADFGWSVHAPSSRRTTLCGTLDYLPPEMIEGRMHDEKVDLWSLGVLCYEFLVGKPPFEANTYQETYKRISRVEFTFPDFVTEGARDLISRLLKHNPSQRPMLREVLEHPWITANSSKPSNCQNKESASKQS

residual activity (EPHA2 (human); compound 0.01 µM): 51% | residual activity (EPHA2 (human); compound 0.1 µM): 15% | residual activity (EPHA2 (human); compound 1.0 µM): 6% | residual activity (AURKA (human); compound 0.01 µM): 98% | residual activity (AURKA (human); compound 0.1 µM): 91% | residual activity (AURKA (human); compound 1.0 µM): 70% | residual activity (CDK2 CCNA2 (human); compound 0.01 µM): 120% | residual activity (CDK2 CCNA2 (human); compound 0.1 µM): 121% | residual activity (CDK2 CCNA2 (human); compound 1.0 µM): 106% | residual activity (MAPKAPK3 (human); compound 0.01 µM): 96% | residual activity (MAPKAPK3 (human); compound 0.1 µM): 90% | residual activity (MAPKAPK3 (human); compound 1.0 µM): 75% | residual activity (MELK (human); compound 0.01 µM): 105% | residual activity (MELK (human); compound 0.1 µM): 93% | residual activity (MELK (human); compound 1.0 µM): 71% | residual activity (EEF2K (human); compound 0.1 µM): 108% | residual activity (EEF2K (human); compound 1.0 µM): 89% | residual activity (PIM3 (human); compound 0.01 µM): 103% | residual activity (PIM3 (human); compound 0.1 µM): 110% | residual activity (PIM3 (human); compound 1.0 µM): 103% | residual activity (RPS6KA3 KD1 KD2 (human); compound 0.01 µM): 100% | residual activity (RPS6KA3 KD1 KD2 (human); compound 0.1 µM): 92% | residual activity (RPS6KA3 KD1 KD2 (human); compound 1.0 µM): 54% | residual activity (MST4 (human); compound 0.01 µM): 100% | residual activity (MST4 (human); compound 0.1 µM): 95% | residual activity (MST4 (human); compound 1.0 µM): 78% | residual activity (CHEK1 (human); compound 0.01 µM): 95% | residual activity (CHEK1 (human); compound 0.1 µM): 100% | residual activity (CHEK1 (human); compound 1.0 µM): 86% | residual activity (BTK (human); compound 0.01 µM): 91% | residual activity (BTK (human); compound 0.1 µM): 38% | residual activity (BTK (human); compound 1.0 µM): 21% | residual activity (MAP2K6 (human); compound 0.1 µM): 101% | residual activity (MAP2K6 (human); compound 1.0 µM): 92% | residual activity (AURKB (human); compound 0.01 µM): 93% | residual activity (AURKB (human); compound 0.1 µM): 92% | residual activity (AURKB (human); compound 1.0 µM): 91% | residual activity (MINK1 (human); compound 0.01 µM): 94% | residual activity (MINK1 (human); compound 0.1 µM): 76% | residual activity (MINK1 (human); compound 1.0 µM): 18% | residual activity (GCK (human); compound 0.01 µM): 103% | residual activity (GCK (human); compound 0.1 µM): 72% | residual activity (GCK (human); compound 1.0 µM): 21% | residual activity (ERBB4 (human); compound 0.01 µM): 90% | residual activity (ERBB4 (human); compound 1.0 µM): 18% | residual activity ([1]; compound 0.01 µM): 94% | residual activity ([1]; compound 1.0 µM): 93% | residual activity ([2]; compound 0.01 µM): 87% | residual activity ([2]; compound 0.1 µM): 59% | residual activity ([2]; compound 1.0 µM): 18% | residual activity (FGFR1 (human); compound 0.01 µM): 102% | residual activity (FGFR1 (human); compound 0.1 µM): 34% | residual activity (FGFR1 (human); compound 1.0 µM): 2% | residual activity (PIM2 (human)): 117% | residual activity (FLT1 (human); compound 0.01 µM): 95% | residual activity (FLT1 (human); compound 0.1 µM): 64% | residual activity (FLT1 (human); compound 1.0 µM): 15% | residual activity (PRKCA (human); compound 0.01 µM): 102% | residual activity (PRKCA (human); compound 0.1 µM): 102% | residual activity (PRKCA (human); compound 1.0 µM): 104% | residual activity (PHKG1 (human); compound 0.01 µM): 125% | residual activity (PHKG1 (human); compound 0.1 µM): 104% | residual activity (PHKG1 (human); compound 1.0 µM): 107% | residual activity (TAOK1 (human); compound 0.01 µM): 85% | residual activity (TAOK1 (human); compound 0.1 µM): 69% | residual activity (TAOK1 (human); compound 1.0 µM): 33% | residual activity (DYRK2 (human); compound 0.01 µM): 89% | residual activity (DYRK2 (human); compound 0.1 µM): 85% | residual activity (DYRK2 (human); compound 1.0 µM): 93% | residual activity (BRSK1 (human); compound 0.01 µM): 103% | residual activity (BRSK1 (human); compound 0.1 µM): 99% | residual activity (BRSK1 (human); compound 1.0 µM): 86% | residual activity (RIPK2 (human); compound 0.01 µM): 77% | residual activity (RIPK2 (human); compound 0.1 µM): 37% | residual activity (RIPK2 (human); compound 1.0 µM): 8% | residual activity (MAP2K2 (human); compound 0.01 µM): 101% | residual activity (MAP2K2 (human); compound 0.1 µM): 96% | residual activity (MAP2K2 (human); compound 1.0 µM): 85% | residual activity (INSRR (human); compound 0.01 µM): 113% | residual activity (INSRR (human); compound 0.1 µM): 112% | residual activity (INSRR (human); compound 1.0 µM): 107% | residual activity (MAPK10 (human); compound 0.01 µM): 93% | residual activity (MAPK10 (human); compound 0.1 µM): 77% | residual activity (MAPK10 (human); compound 1.0 µM): 38% | residual activity (CSNK2A1 (human); compound 0.01 µM): 98% | residual activity (CSNK2A1 (human); compound 0.1 µM): 100% | residual activity (CSNK2A1 (human); compound 1.0 µM): 100% | residual activity (PRKACA (human); compound 0.01 µM): 91% | residual activity (PRKACA (human); compound 0.1 µM): 96% | residual activity (PRKACA (human); compound 1.0 µM): 79% | residual activity (MAPKAPK5 (human); compound 0.01 µM): 119% | residual activity (MAPKAPK5 (human); compound 0.1 µM): 115% | residual activity (MAPKAPK5 (human); compound 1.0 µM): 125% | residual activity (SRPK1 (human); compound 0.01 µM): 96% | residual activity (SRPK1 (human); compound 0.1 µM): 85% | residual activity (SRPK1 (human); compound 1.0 µM): 90% | residual activity (MAPK12 (human); compound 0.01 µM): 110% | residual activity (MAPK12 (human); compound 0.1 µM): 112% | residual activity (MAPK12 (human); compound 1.0 µM): 105%
Structure (SMILES): COc1ccc(N(C(=O)Nc2c(C)cccc2C)c2cc(Nc3ccc(N4CCN(C)CC4)cc3)ncn2)c(OC)c1
residual activity (MAPK15 (human); compound 0.01 µM): 108% | residual activity (MAPK15 (human); compound 0.1 µM): 112% | residual activity (MAPK15 (human); compound 1.0 µM): 94%

— the kinase profiling compilation of Christmann-Franck et al. (2016)
